Patent publication EP4295688A1, “ACTIVE COMPOUND COMBINATION” (Bayer Aktiengesellschaft, priority 2022, dated 2023)
Like-named read-outs stand apart in the source and are kept apart here.

Experiment: Measurement of LogP values by HPLC on reversed phase columns (EEC directive 79/831 Annex V.A8)
Type: physicochemical
Details: for chromatographic logP: reversed-phase HPLC column (Agilent Zorbax Eclipse C18)
Procedure: Measurement of LogP values was performed according to EEC directive 79/831 Annex V.A8 by HPLC (High Performance Liquid Chromatography) on reversed phase columns (Agilent Zorbax Eclipse C18) with the following methods: • ^[a] LogP value is determined by measurement of LC-UV and/or MS and/or ELS, in an acidic range, with 0.1% formic acid in water and acetonitrile as eluent (linear gradient from 10% acetonitrile to 95% acetonitrile). • ^[b] LogP value is determined by measurement of LC-UV and/or MS and/or ELS, in a neutral range, with 0.001 molar ammonium acetate solution in water and acetonitrile as eluent (linear gradient from 10% acetonitrile to 95% acetonitrile). If more than one LogP value is available within the same method, all the values are given and separated by "+". Calibration was done with straight-chain alkan2-ones (with 3 to 16 carbon atoms) with known LogP values (measurement of LogP values using retention times with linear interpolation between successive alkanones). Lambda-max-values were determined using UV-spectra from 200 nm to 400 nm and the peak values of the chromatographic signals.

[1] = [Method A] as printed in the preparation examples (taken as method [a], acidic range)
[2] = method [a]: acidic range, 0.1% formic acid in water and acetonitrile as eluent (linear gradient 10% to 95% acetonitrile)

| Compound | chromatographic logP [1] | chromatographic logP [2] | also measured |
| --- | --- | --- | --- |
| OCc1ccc(-c2noc(C(F)(F)Cl)n2)cc1F [VIII"-a, (4-{5-[chloro(difluoro)methyl]-1,2,4-oxadiazol-3-yl}-2-fluorophenyl)methanol] | 2.98 | 2.98 |  |
| CCOC(=O)c1cnn(Cc2ccc(-c3noc(C(F)(F)Cl)n3)cc2F)c1 [I.01] |  |  | LogP [1]: 3.98 |
| CONCc1ccc(-c2noc(C(F)(F)Cl)n2)cc1 [V-a, 1-[4-[5-[Chloro(difluoro)methyl]-1.2.4-oxadiazol-3-yl]phenyl]-N-methoxy-methanamine] | 3.09 | 3.09 |  |
| Cc1ccc(-c2noc(C(F)(F)Cl)n2)s1 [X-a, 5-[chloro(difluoro)methyl]-3-(5-methyl-2-thienyl)-1,2,4-oxadiazole] | 4.18 | 4.18 |  |
| CCOC(=O)c1cnn(Cc2ccc(-c3noc(C(F)(F)Cl)n3)s2)c1 [I.02] |  |  | LogP [1]: 3.81 |
| FC(F)(Cl)c1nc(-c2ccc(CBr)s2)no1 [VIII'-b, 3-[5-(bromomethyl)-2-thienyl]-5-[chloro(difluoro)methyl]-1,2,4-oxadiazole] | 4.2 | 4.2 |  |
| Cc1ccc(C(N)=NO)s1 [N'-hydroxy-5-methylthiophene-2-carboximidamide] |  |  | chromatographic logP ([Method B] as printed in the preparation examples (taken as method [b], neutral range, 0.001 molar ammonium acetate)): 1.17 |
| Fc1cc(-c2noc(C(F)(F)Cl)n2)ccc1CBr [VIII'-a, 3-[4-(bromomethyl)-3-fluorophenyl]-5-[chloro(difluoro)methyl]-1,2,4-oxadiazole] | 4.66 | 4.66 |  |
| FC(F)(Cl)c1nc(-c2ccc(CBr)cc2)no1 [VIII'-c, 3-[4-(Bromomethyl)phenyl]-5-(chlorodifluoromethyl)-1,2,4-oxadiazole] | 4.48 | 4.48 |  |
| CCOC(=O)c1cnn(Cc2ccc(-c3noc(C(F)(F)Cl)n3)cc2F)c1 [1.01, ethyl 1-(4-{5-[chloro(difluoro)methyl]-1,2,4-oxadiazol-3-yl}-2-fluorobenzyl)-1H-pyrazole-4-carboxytate] |  |  | LogP: 3.98^[a] |
| Cc1ccc(-c2noc(C(F)(F)Cl)n2)cc1 [X-b, 3-(4-Methylphenyl)-5-(chlorodifluoromethyl)-1,2,4-oxadiazole] | 4.55 | 4.55 |  |

Now from value to compound, other results behind:

| chromatographic logP [1] | chromatographic logP [2] | Compound | also measured |
| --- | --- | --- | --- |
| 3.31 | 3.31 | COC(C)C(=O)N(Cc1ccc(-c2noc(C(F)(F)Cl)n2)cc1)OC (stereo not shown) [1.05, N-(4-{5-[chloro(difluoro)methyl]-1,2,4-oxadiazol-3-yl}benzyl)-N,2-dimethoxypropan-amide] |  |
|  | 3.81 | CCOC(=O)c1cnn(Cc2ccc(-c3noc(C(F)(F)Cl)n3)s2)c1 [1.02, ethyl 1-[(5-{5-[chloro(difluoro)methyl]-1,2,4-oxadiazol-3-yl}-2-thienyl)methyl]-1H-pyrazole-4-carboxylate] |  |
| 2.92 | 2.92 | CONC(=O)N(Cc1ccc(-c2noc(C(F)(F)Cl)n2)cc1)OC [1.04, 1-(4-{5-[Chloro(difluoro)methyl]-1,2,4-oxadiazol-3-yl}benzyl)-1,3-dimethoxyurea] |  |
| 3.31 | 3.81 | C#Cc1ccn(Cc2ccc(-c3noc(C(F)(F)Cl)n3)cc2)n1 [1.03, 5-[chloro(difluoro)methyl]-3-{4-[(3-ethynyl-1H-pyrazol-1-yl)methyl]phenyl}-1,2,4-oxadiazole] |  |
